A short description of data set [1]: Water stability (conversion of prodrug to 1,3PDS). It counts as physicochemical. To be noted: deionized water; for Conversion to 1,3PDS (%) 1 h / Conversion to 1,3PDS (%) 2 h: 37° C.; for Conversion to 1,3PDS (%) 0 h / Conversion to 1,3PDS (%) 24 h: room temperature; for Conversion to 1,3PDS (%) 0 h: 200 μg/mL. How it is done: The objective of this test was to determine the stability of the prodrugs in simulated gastric fluid (SGF) and water at 37° C. up to 2 hours and in water at room temperature up to 24 hours.
Simulated gastric fluid and water samples were incubated in a shaking water bath at 37° C. for up to 2 hours. The compound (prodrug) was added at Time-point 0. At each selected time point (refer to table), sample aliquots were withdrawn and analyzed to determine the concentration of 1,3-propanedisulfonic acid (1,3PDS). The concentrations of 1,3PDS were calculated based on their respective peak area. The % appearance of 1,3PDS was determined by the amounts of compound determined at each time point compared to nominal concentration (100%) of 1,3PDS generated by 100% of the prodrug (equivalent concentration).
A fresh stock solution at approximately 2 mg/mL of the compound was prepared. One stability solution at 200 μg/mL in the SGF was prepared (sample referred to as Tube A). A stability solution at 200 μg/mL in deionized water was prepared (sample referred to as Tube B). Immediately after preparation, each 200 μg/mL solution was diluted in triplicates to 20 μg/mL in deionized water and analyzed using LC-MS/MS method (Time-point 0). Thereafter, the incubation of tubes A and B was continued in the shaking water bath at 37° C. for 1 and 2 hours while one aliquot of tube B was kept at room temperature for 24 hours. At each specific time point of incubation, 3 aliquots (triplicate) of 50 μL were removed, diluted in 450 μL of water and analyzed using LC-MS/MS method. In parallel, 3 reference samples of 1,3PDS at 100, 10 and 1 μg/mL were prepared, diluted in triplicate in water and injected at the beginning and at the end of the batch. These samples were considered as reference samples.
The concentrations of 1,3PDS were calculated based on response of the reference samples and their respective peak area response. The % appearance of 1,3PDS was determined by the amounts of compound determined at each time point compared to expected nominal concentration (100%) of 1,3PDS generated by 100% of the prodrug (equivalent concentration).

Data set [2] is described as follows: In vivo study in ferrets (clinical signs after oral gavage). To be noted: male ferrets, oral administration, standard dose as printed. As to the method:
One group of three male non-naïve ferrets (domestic strain, >16 weeks, >1.2 Kg) were starved for approximately 1.5 h prior to administration of a dosing formulation. Food was given 2 hours post dose. […] The dosing volume was adjusted to 5 mL/kg. Clinical signs were recorded throughout the study period. […] Plasma samples were stored frozen at −80° C. pending transfer to analysis. An aliquot of dosing solution (0.5 mL) was taken prior to dosing and stored frozen at −20° C. pending transfer to analysis. Animals used for multiple studies after a wash out of a minimum twelve day period.

The subject of data set [3] is Salmonella typhimurium strains (TA1535, TA1537, TA98, TA100) and Escherichia coli strain WP2 uvrA. The data set can be described thus: Bacterial mutation tests (Ames test). It counts as cell-based. To be noted: 1.58 to 5000 μg/plate, pre-incubation version; for Bacterial mutation test result in presence of S9: with S9 mix; for Bacterial mutation test result in absence of S9: without S9 mix. As to the method:
Bacterial mutation tests were performed at Charles River Laboratories to evaluate the mutagenic potential of various prodrugs. Salmonella typhimurium strains (TA1535, TA1537, TA98, TA100) and Escherichia coli strain WP2 uvrA were treated with prodrugs at concentrations ranging from 1.58 to 5000 μg/plate in the presence and absence of a supplemented liver fraction (S9 mix) using the pre-incubation version of the bacterial mutation test. All concentrations of each compound were evaluated in triplicate. Bacteria were incubated with standard positive control agents, and the response of the various bacterial strains to these agents confirmed the sensitivity of the test system and the activity of the S9 mix.
(In general: The Ames test detects mutagens through reverse mutation in bacteria.)

In the case of `CC(C)(C)COS(=O)(=O)CCCS(=O)(=O)[O-].[Na+]` [A6(Na)], in data set [1], the “Conversion to 1,3PDS (%) 1 h” value is on record as 1.0%, the “Conversion to 1,3PDS (%) 2 h” value is 1.6%, the “Conversion to 1,3PDS (%) 0 h” value is on record as 0.4% and the “Conversion to 1,3PDS (%) 24 h” value was 1.4%.

For the molecule `CC(C)(CNC(=O)[C@H](Cc1ccccc1)NC(=O)OC(C)(C)C)COS(=O)(=O)CCCS(=O)(=O)[O-].[Na+]` [A52(K)], in data set [1], the “Conversion to 1,3PDS (%) 1 h” value was 14.6%, the “Conversion to 1,3PDS (%) 2 h” value is 18.8%, the “Conversion to 1,3PDS (%) 0 h” value is on record as 7.0% and the “Conversion to 1,3PDS (%) 24 h” value was 21.3%.

With `CC(OC(=O)NCCC(C)(C)COS(=O)(=O)CCCS(=O)(=O)O)OC(=O)C(C)C` (centres unmarked) [Compound A13], in data set [1], the “Conversion to 1,3PDS (%) 1 h” value is reported as 0.0%, the “Conversion to 1,3PDS (%) 2 h” value was 0.0%, the “Conversion to 1,3PDS (%) 0 h” value is on record as 0.0% and the “Conversion to 1,3PDS (%) 24 h” value is reported as 0.0%.

`CC(C)[C@H](N)C(=O)NCCC(C)(C)COS(=O)(=O)CCCS(=O)(=O)O` [Compound A14]: in data set [1], the “Conversion to 1,3PDS (%) 1 h” value was found to be 0.4%, the “Conversion to 1,3PDS (%) 2 h” value is given as 1.4% and the “Conversion to 1,3PDS (%) 0 h” value came to 0.2%.

In the case of `CC(C)(CNC(=O)[C@@H](N)Cc1ccccc1)COS(=O)(=O)CCCS(=O)(=O)O` [Compound A51], in data set [1], the “Conversion to 1,3PDS (%) 1 h” value turned out to be 14%, the “Conversion to 1,3PDS (%) 2 h” value is 18% and the “Conversion to 1,3PDS (%) 0 h” value came to 13%. The “Clinical signs / side effects in ferrets” value in data set [2] is “no clinical signs”. In addition, in data set [3], the “Bacterial mutation test result in presence of S9” value is “Negative” and the “Bacterial mutation test result in absence of S9” value is “Negative”.

`CCOC(=O)C(C)(N)COS(=O)(=O)CCCS(=O)(=O)O` (centres unmarked) [Compound A61]: the “Clinical signs / side effects in ferrets” value in data set [2] is reported as “no clinical signs”. Further, in data set [3], the “Bacterial mutation test result in presence of S9” value was “Positive” and the “Bacterial mutation test result in absence of S9” value was “Positive”.

As to `CC(OC(=O)NCCC(C)(C)COS(=O)(=O)CCCS(=O)(=O)OCC(C)(C)CCNC(=O)OC(C)OC(=O)C(C)C)OC(=O)C(C)C` (centres unmarked) [Compound B13], in data set [1], the “Conversion to 1,3PDS (%) 1 h” value amounted to 0.4%, the “Conversion to 1,3PDS (%) 2 h” value is on record as 0.4% and the “Conversion to 1,3PDS (%) 0 h” value is 0.3%.

As to `CC(C)[C@H](N)C(=O)NCCC(C)(C)COS(=O)(=O)CCCS(=O)(=O)OCC(C)(C)CCNC(=O)[C@@H](N)C(C)C` [Compound B14], in data set [1], the “Conversion to 1,3PDS (%) 1 h” value was 0.0%, the “Conversion to 1,3PDS (%) 2 h” value was determined as 0.0% and the “Conversion to 1,3PDS (%) 0 h” value is given as 0.0%.

As for `CC(C)(CCOC(=O)c1ccccc1)COS(=O)(=O)CCCS(=O)(=O)OCC(C)(C)CCOC(=O)c1ccccc1` [Compound B23], in data set [1], the “Conversion to 1,3PDS (%) 1 h” value turned out to be 0.0%, the “Conversion to 1,3PDS (%) 2 h” value was 0.0%, the “Conversion to 1,3PDS (%) 0 h” value is on record as 0.0% and the “Conversion to 1,3PDS (%) 24 h” value is on record as 0.0%.

With `CCOC(=O)C(C)(C)COS(=O)(=O)CCCS(=O)(=O)OCC(C)(C)C(=O)OCC` [Compound B29], the “Clinical signs / side effects in ferrets” value in data set [2] is recorded as “no clinical signs”. In data set [3], the “Bacterial mutation test result in presence of S9” value is “Positive” and the “Bacterial mutation test result in absence of S9” value is listed as “Negative”.

For the molecule `CC(C)(COS(=O)(=O)CCCS(=O)(=O)OCC(C)(C)C(=O)O)C(=O)O` [Compound B58], the “Clinical signs / side effects in ferrets” value in data set [2] is reported as “vomiting”. For the same molecule, in data set [3], the “Bacterial mutation test result in presence of S9” value is listed as “Positive” and the “Bacterial mutation test result in absence of S9” value was “Positive”.

Consider `CCOC(=O)C(C)(C)C(C)OS(=O)(=O)CCCS(=O)(=O)OC(C)C(C)(C)C(=O)OCC` (centres unmarked) [Compound B68], for which, in data set [3], the “Bacterial mutation test result in presence of S9” value is recorded as “Negative” and the “Bacterial mutation test result in absence of S9” value is listed as “Negative”.

Consider `CCOC(=O)CCC(C)(C)COS(=O)(=O)CCCS(=O)(=O)OCC(C)(C)CCC(=O)OCC` [Compound B75], for which the “Clinical signs / side effects in ferrets” value in data set [2] is on record as 2 out of 3 animals showed abdomen scratching but recovered after 1 h. Further, in data set [3], the “Bacterial mutation test result in presence of S9” value is recorded as “Negative” and the “Bacterial mutation test result in absence of S9” value is “Negative”.

Turning to `CC1(COS(=O)(=O)CCCS(=O)(=O)OCC2(C)CCOC2=O)CCOC1=O` (centres unmarked) [Compound B76], in data set [2], the “Clinical signs / side effects in ferrets” value was “no clinical signs”. Besides, in data set [3], the “Bacterial mutation test result in presence of S9” value is “Negative” and the “Bacterial mutation test result in absence of S9” value was “Negative”.

Turning to `CC1(C)COC(=O)C1OS(=O)(=O)CCCS(=O)(=O)OC1C(=O)OCC1(C)C` (centres unmarked) [Compound B77], the “Clinical signs / side effects in ferrets” value in data set [2] was “no clinical signs”. For the same molecule, in data set [3], the “Bacterial mutation test result in presence of S9” value is recorded as “Negative” and the “Bacterial mutation test result in absence of S9” value was “Negative”.

With `CC1(COS(=O)(=O)CCCS(=O)(=O)OCC2(C)CCC(=O)O2)CCC(=O)O1` (centres unmarked) [Compound B78], in data set [3], the “Bacterial mutation test result in presence of S9” value is “Negative” and the “Bacterial mutation test result in absence of S9” value is reported as “Negative”.

Regarding `CCOC(=O)C(OS(=O)(=O)CCCS(=O)(=O)OC(C(=O)OCC)C(C)(C)C)C(C)(C)C` (centres unmarked) [Compound B82], the “Clinical signs / side effects in ferrets” value in data set [2] is recorded as “no clinical signs”.

With `CCOC(=O)C(OS(=O)(=O)CCCS(=O)(=O)OC(C(=O)OCC)C(C)C)C(C)C` (centres unmarked) [Compound B83], the “Clinical signs / side effects in ferrets” value in data set [2] was “no clinical signs”. Also, in data set [3], the “Bacterial mutation test result in presence of S9” value is reported as “Negative” and the “Bacterial mutation test result in absence of S9” value is recorded as “Negative”.

On to `O=S1(=O)CCCS(=O)(=O)OCO1` [Compound C2], for which the “Clinical signs / side effects in ferrets” value in data set [2] is “severe toxicity”.

In the case of `CC(C)(C)C(=O)OCOS(=O)(=O)CCCS(=O)(=O)OCOC(=O)C(C)(C)C` [Compound D1], in data set [2], the “Clinical signs / side effects in ferrets” value was “green face”.

For the molecule `CCCC(=O)OCOS(=O)(=O)CCCS(=O)(=O)OCOC(=O)CCC` [Compound D3], the “Clinical signs / side effects in ferrets” value in data set [2] was “abdominal contracting and/or vomiting”.

For the molecule `O=C(OCOS(=O)(=O)CCCS(=O)(=O)OCOC(=O)C1CCCCC1)C1CCCCC1` [Compound D5], the “Clinical signs / side effects in ferrets” value in data set [2] is recorded as “abdominal contracting and/or vomiting”.

`CCC(=O)OCOS(=O)(=O)CCCS(=O)(=O)OCOC(=O)CC` [Compound D7]: the “Clinical signs / side effects in ferrets” value in data set [2] is recorded as “abdominal contracting and/or vomiting”.

The values above are taken from patent publication US9051248B2, “Methods, compounds, and compositions for delivering 1,3-propanedisulfonic acid” (BHI Limited Partnership, priority 2009, dated 2015).
